The results in this text go back to patent US8791132B2, “Compounds and methods for treatment of hypertension” (Medivation Technologies, Inc., priority 2011, dated 2014).

In assay [1] the target is T1, human recombinant adrenergic α2A receptor (Homo sapiens, UniProt P08913).
T1 construct: expressed in transfected cells; host or cells: insect Sf9 cells
T1 sequence (P08913 1-465): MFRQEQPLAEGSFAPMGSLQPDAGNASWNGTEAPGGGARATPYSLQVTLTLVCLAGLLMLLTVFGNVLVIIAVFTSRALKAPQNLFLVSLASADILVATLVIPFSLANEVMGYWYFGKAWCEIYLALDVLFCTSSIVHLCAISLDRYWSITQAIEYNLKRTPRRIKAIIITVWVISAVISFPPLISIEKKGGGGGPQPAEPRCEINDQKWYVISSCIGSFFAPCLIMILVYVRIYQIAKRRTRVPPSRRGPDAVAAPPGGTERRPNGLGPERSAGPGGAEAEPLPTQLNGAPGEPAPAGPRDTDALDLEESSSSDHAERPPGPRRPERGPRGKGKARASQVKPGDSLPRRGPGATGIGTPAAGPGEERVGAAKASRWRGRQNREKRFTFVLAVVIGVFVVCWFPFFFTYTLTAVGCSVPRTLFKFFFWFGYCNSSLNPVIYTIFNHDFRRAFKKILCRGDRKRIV
As to the kind of experiment: Radioligand binding, adrenergic α2A ([3H]MK-912). The note with it: for Percentage inhibition of ligand binding, Adrenergic α2A (0.1 μM): compound at 0.1 μM; for inhibition at 0.1 µM: read-out: Percentage inhibition of ligand binding, Adrenergic α2A (0.1 μM), compound at 0.1 μM. A digest of the protocol:
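Receptor expressed in Sf9 cells, in 50 mM Tris-HCl pH 7.4, 12.5 mM MgCl2, 2 mM EDTA; compounds incubated with 1 nM [3H]MK-912 for 60 min at 25 °C.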

The target of assay [2] is T2, human recombinant adrenergic α2B receptor (Homo sapiens, UniProt P18089).
T2 construct: expressed in transfected cells; host or cells: CHO-K1
T2 sequence (P18089 1-450): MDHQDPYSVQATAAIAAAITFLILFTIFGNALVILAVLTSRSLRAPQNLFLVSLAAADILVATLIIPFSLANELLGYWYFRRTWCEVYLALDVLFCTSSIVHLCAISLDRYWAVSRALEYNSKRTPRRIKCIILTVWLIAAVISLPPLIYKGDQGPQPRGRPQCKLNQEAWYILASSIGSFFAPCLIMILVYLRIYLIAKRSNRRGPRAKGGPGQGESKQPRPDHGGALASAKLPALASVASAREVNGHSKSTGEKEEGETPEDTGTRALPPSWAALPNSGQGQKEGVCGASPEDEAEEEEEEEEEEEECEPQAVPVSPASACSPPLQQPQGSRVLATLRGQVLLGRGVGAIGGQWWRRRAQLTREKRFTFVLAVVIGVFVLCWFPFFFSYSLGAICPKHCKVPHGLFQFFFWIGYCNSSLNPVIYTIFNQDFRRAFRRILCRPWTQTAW
As to the kind of experiment: Radioligand binding, adrenergic α2B ([3H]Rauwolscine). Particulars: for Percentage inhibition of ligand binding, Adrenergic α2B (0.03 μM): compound at 0.03 μM; for Percentage inhibition of ligand binding, Adrenergic α2B (0.03 μM) / inhibition at 0.03 µM / inhibition at 0.1 µM: [3H]Rauwolscine, repeat datapoints each shown; for inhibition at 0.03 µM: read-out: Percentage inhibition of ligand binding, Adrenergic α2B (0.03 μM), compound at 0.03 μM; for inhibition at 0.1 µM: read-out: Percentage inhibition of ligand binding, Adrenergic α2B (0.1 μM), compound at 0.1 μM. The method in brief: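 Assay used CHO-K1-expressed human α2B receptor in Tris-HCl pH 7.4 buffer with MgCl2, EDTA and BSA; 60 min incubation at 25 °C.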

The target in assay [3] is T3, rat adrenergic α1B receptor (Rattus norvegicus, UniProt P15823).
T3 construct: rat adrenergic α1B receptor obtained from Wistar Rat liver; from tissue; host or cells: Wistar rat liver
T3 sequence (P15823 1-515): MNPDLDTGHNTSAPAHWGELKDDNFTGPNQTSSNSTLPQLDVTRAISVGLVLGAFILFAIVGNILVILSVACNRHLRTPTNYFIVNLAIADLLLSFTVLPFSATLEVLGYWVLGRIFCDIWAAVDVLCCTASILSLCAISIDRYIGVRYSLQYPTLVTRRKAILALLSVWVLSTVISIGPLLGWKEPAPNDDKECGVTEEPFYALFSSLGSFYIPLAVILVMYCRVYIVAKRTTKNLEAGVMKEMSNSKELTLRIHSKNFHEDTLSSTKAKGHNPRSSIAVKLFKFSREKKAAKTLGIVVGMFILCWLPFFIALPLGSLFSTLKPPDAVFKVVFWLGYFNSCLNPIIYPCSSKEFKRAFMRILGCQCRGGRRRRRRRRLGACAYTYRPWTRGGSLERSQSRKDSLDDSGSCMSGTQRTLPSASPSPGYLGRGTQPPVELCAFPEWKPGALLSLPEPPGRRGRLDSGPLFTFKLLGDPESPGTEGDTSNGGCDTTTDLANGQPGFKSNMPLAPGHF
Kind of assay: Radioligand binding, adrenergic α1B ([3H]Prazosin). Particulars: [3H]Prazosin, repeat datapoints each shown; for Percentage inhibition of ligand binding, Adrenergic α1B (0.1 μM): compound at 0.1 μM; for inhibition at 0.1 µM: read-out: Percentage inhibition of ligand binding, Adrenergic α1B (0.1 μM), compound at 0.1 μM. The method in brief: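 Specific binding, taken as total minus that remaining with 10 μM phentolamine, is measured after filtration and counting. Rat liver receptor preparation and 0.25 nM [3H]prazosin are incubated with compound in 50 mM Tris-HCl (pH 7.4, 0.5 mM EDTA) at 25° C for 60 min. Activity is reported as percent inhibition.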

Where [4] appears, read: [3H]MK-912, repeat datapoints each shown.

Several values for one entry are separate records, joined by “and”; a condition that tells them apart may be missing. Equal entries are not always repeated. Where two headings read alike, the source gives them in different places.

As a reminder, the inhibition is the relative decrease from the control value, in per cent. What is called Ki is a dissociation constant, usually derived from enzyme kinetics or from competition with a known ligand.

Regarding `Cc1ccc2c(c1)c1c(n2CC(N)c2ccncc2)CCN(C)CC1` (single isomer, unassigned) [154a, 2-(3,9-dimethyl-2,3,4,5-tetrahydroazepino[4,5-b]indol-6(1H)-yl)-1-(pyridin-4-yl)ethanamine], the “Percentage inhibition of ligand binding, Adrenergic α2A (0.1 μM)” value in assay [1] (setting [4]) was 4%. Moreover, the “Percentage inhibition of ligand binding, Adrenergic α2B (0.03 μM)” value (shortened to “Percentage inhibition … (0.03 μM)”) in assay [2] was 31%. In addition, in assay [3], the “Percentage inhibition of ligand binding, Adrenergic α1B (0.1 μM)” value was determined as 39%.

For the compound `Cc1ccc2c(c1)c1c(n2CC(N)c2ccncc2)CCN(C)CC1` (single isomer, unassigned) [154b, 2-(3,9-dimethyl-2,3,4,5-tetrahydroazepino[4,5-b]indol-6(1H)-yl)-1-(pyridin-4-yl)ethanamine], the inhibition at 0.1 µM in assay [1] (setting [4]) turned out to be 5%; in assay [2], 95%; in assay [3] it was 95%. Further, the Ki in assay [2] (Ki α2B) turned out to be 3.33 nM. In assay [2], the “Percentage inhibition … (0.03 μM)” value worked out at 83%. Moreover, the inhibition at 0.03 µM in assay [2] amounted to 80%; in assay [3] (read-out: Percentage inhibition of ligand binding, Adrenergic α1B (0.03 μM), compound at 0.03 μM), 80%.

Consider `Cc1ccc2c(c1)c1c(n2CC(N)c2ccncc2)CC2CCC1N2C` (single isomer, unassigned) [155b], for which the “Percentage inhibition of ligand binding, Adrenergic α2A (0.1 μM)” value in assay [1] (setting [4]) is reported as 5%. Besides, the “Percentage inhibition … (0.03 μM)” value in assay [2] is reported as 5%. In assay [3], the “Percentage inhibition of ligand binding, Adrenergic α1B (0.1 μM)” value is 1%.

Regarding `Cc1cnc2c(c1)c1c(n2CC(N)c2ccc(C#N)cc2)CCN(C)C1` (single isomer, unassigned) [159b], the “Percentage inhibition of ligand binding, Adrenergic α2A (0.1 μM)” value in assay [1] (setting [4]) was −12%. Besides, the “Percentage inhibition … (0.03 μM)” value in assay [2] stood at 52%. Further, in assay [3], the “Percentage inhibition of ligand binding, Adrenergic α1B (0.1 μM)” value is recorded as 53%.

`Cc1cnc2c(c1)c1c(n2CC(N)c2ccc(C#N)cc2)CCNC1` (single isomer, unassigned) [160a]: in assay [1] (setting [4]), the “Percentage inhibition of ligand binding, Adrenergic α2A (0.1 μM)” value was −12%. Also, the inhibition at 0.03 µM in assay [2] turned out to be 43%. Moreover, in assay [3], the “Percentage inhibition of ligand binding, Adrenergic α1B (0.1 μM)” value was found to be 35%.

As for `Cc1cnc2c(c1)c1c(n2CC(N)c2ccc(C#N)cc2)CCNC1` (single isomer, unassigned) [160b], the “Percentage inhibition of ligand binding, Adrenergic α2A (0.1 μM)” value in assay [1] (setting [4]) is recorded as 5%. In assay [2], the “Percentage inhibition … (0.03 μM)” value was determined as 41%. In assay [3], the “Percentage inhibition of ligand binding, Adrenergic α1B (0.1 μM)” value came to 65%.

For the compound `Cc1ccc2c(c1)c1c(n2CC(O)c2ccc(F)cc2F)CCN(C)CC1` (single isomer, unassigned) [172a], the “Percentage inhibition of ligand binding, Adrenergic α2A (0.1 μM)” value in assay [1] (setting [4]) stood at 18%. Moreover, in assay [2], the “Percentage inhibition … (0.03 μM)” value is reported as 65%. In assay [3], the “Percentage inhibition of ligand binding, Adrenergic α1B (0.1 μM)” value is recorded as 54%.

Regarding `Cc1ccc2c(c1)c1c(n2CC(O)c2ccc(F)cc2F)CCN(C)CC1` (single isomer, unassigned) [172b], the “Percentage inhibition of ligand binding, Adrenergic α2A (0.1 μM)” value in assay [1] (setting [4]) is on record as 46%. In addition, the “Percentage inhibition … (0.03 μM)” value in assay [2] was determined as 93%. In addition, in assay [3], the “Percentage inhibition of ligand binding, Adrenergic α1B (0.1 μM)” value stood at 92%.

In the case of `CN1CCc2c(c3ccccc3n2CC(C)(O)c2cccnc2)C1` (single isomer, unassigned) [173a], the “Percentage inhibition of ligand binding, Adrenergic α2A (0.1 μM)” value in assay [1] (setting [4]) stood at 15%. Moreover, in assay [2], the “Percentage inhibition … (0.03 μM)” value is 61% and 68%; the inhibition at 0.1 µM was 82%. Further, in assay [2] (read-out: Ki α2B), the Ki worked out at 8.77 nM. For the same compound, the inhibition at 0.1 µM in assay [3] came to 5%.

In the case of `CN1CCc2c(c3ccccc3n2CC(C)(O)c2cccnc2)C1` (single isomer, unassigned) [173b], the “Percentage inhibition of ligand binding, Adrenergic α2A (0.1 μM)” value in assay [1] (setting [4]) is on record as −2%. The “Percentage inhibition … (0.03 μM)” value in assay [2] came out at 28%. For the same compound, in assay [3], the “Percentage inhibition of ligand binding, Adrenergic α1B (0.1 μM)” value is 8%.

`CN1CCc2c(c3cc(C(F)(F)F)ccc3n2CC(C)(O)c2cccnc2)C1` (single isomer, unassigned) [174a]: in assay [1] (setting [4]), the “Percentage inhibition of ligand binding, Adrenergic α2A (0.1 μM)” value turned out to be 22%. For the same compound, the “Percentage inhibition … (0.03 μM)” value in assay [2] is 62% and 71%. Also, the Ki in assay [2] (read-out: Ki α2B) was found to be 7.91 nM. Moreover, the inhibition at 0.1 µM in assay [2] came out at 86%; in assay [3], 13%.

As for `CN1CCc2c(c3cc(C(F)(F)F)ccc3n2CC(C)(O)c2cccnc2)C1` (single isomer, unassigned) [174b], in assay [1] (setting [4]), the “Percentage inhibition of ligand binding, Adrenergic α2A (0.1 μM)” value came out at 6%. The “Percentage inhibition … (0.03 μM)” value in assay [2] is recorded as 15%. In assay [3], the “Percentage inhibition of ligand binding, Adrenergic α1B (0.1 μM)” value is 11%.

As to `CC(O)(Cn1c2c(c3cc(Cl)ccc31)CNCC2)c1cccnc1` (single isomer, unassigned) [175a], in assay [1] (setting [4]), the inhibition at 0.1 µM stood at 11%. In addition, in assay [2], the “Percentage inhibition … (0.03 μM)” value is 69% and 73%; the inhibition at 0.1 µM amounted to 90%. The Ki in assay [2] (read-out: Ki α2B) was determined as 4.42 nM. Besides, the “Percentage inhibition of ligand binding, Adrenergic α1B (0.1 μM)” value in assay [3] is recorded as 11%.

With `CC(O)(Cn1c2c(c3cc(Cl)ccc31)CNCC2)c1cccnc1` (single isomer, unassigned) [175b], in assay [1] (setting [4]), the “Percentage inhibition of ligand binding, Adrenergic α2A (0.1 μM)” value was 7%. Further, in assay [2], the “Percentage inhibition … (0.03 μM)” value came to 4%. Moreover, the “Percentage inhibition of ligand binding, Adrenergic α1B (0.1 μM)” value in assay [3] turned out to be 4%.

`Cc1ccc2c(c1)c1c(n2CC(C)(O)c2cnccn2)CCN2CCCC12` (single isomer, unassigned) [176b]: the “Percentage inhibition of ligand binding, Adrenergic α2A (0.1 μM)” value in assay [1] (setting [4]) is listed as 12%. In addition, the “Percentage inhibition … (0.03 μM)” value in assay [2] was 67%. Further, in assay [3], the “Percentage inhibition of ligand binding, Adrenergic α1B (0.1 μM)” value turned out to be 41%.

For `Cc1ccc(C(O)Cn2c3c(c4cc(C)ccc42)CN(C)CC3)cc1` (single isomer, unassigned) [183b, 2-(1,2,3,4-tetrahydro-2,8-dimethylpyrido[4,3-b]indol-5-yl)-1-p-tolylethanol], the Ki in assay [1] came to 2.72 nM. Besides, the “Percentage inhibition of ligand binding, Adrenergic α2A (0.1 μM)” value in assay [1] (setting [4]) is given as 97%. Further, the inhibition at 0.03 µM in assay [1] (read-out: Percentage inhibition of ligand binding, Adrenergic α2A (0.03 μM), compound at 0.03 μM, [3H]MK-912, repeat datapoints each shown) is 84%; in assay [2], 98%. For the same compound, the inhibition at 0.1 µM in assay [1] (setting [4]) and in assay [3] was 93% throughout.

With `C/C(=C\n1c2c(c3cc(C)ccc31)C1CCCN1CC2)c1ccc(C)nc1` (single isomer, unassigned) [193b, 10-methyl-7-(2-(6-methylpyridin-3-yl)prop-1-enyl)-2,3,5,6,7,11c-hexahydro-1H-indolizino[7,8-b]indole], the inhibition at 0.1 µM in assay [1] (setting [4]) is 83%; in assay [3], 91%. Moreover, in assay [2], the inhibition at 0.03 µM was 104%.
